Laboratory results as given in US20240082268A1, “METHODS AND COMPOSITIONS FOR CONTROLLING NEUROINFLAMMATION” (Invenux, LLC, priority 2021, published 2024).
pIC50: −log10 of the molar value.

Assays:
MPS IIIB KO mice = test: Behavioral and cognitive tests in mouse model of MPS IIIB; assay type: in vivo; settings: MPS IIIB KO mice, 100, 33 or 10 mg/kg/day oral, after 6 months, vs vehicle control
Experimental: CBD or vehicle is administered daily by oral gavage. […] At baseline, and after 3, 6, and 9 months, the mice are given behavioral tests to measure hyperactive and social interaction, and cognitive tests to measure spatial memory and learning deficits.

[1] = system: CD68 (microglia activation); test: CD68 immunoreactivity in brain slices, mouse model of MPS IIIB; assay type: in vivo
Experimental: (§1) Brain slices were taken along the rostro caudal axis in a serial section. Quantification using the brain slices was performed using Image Pro Premiere software.
(§2) The breeding pairs of MPS IIIB mice were obtained from Jackson Laboratory (JAX stock #003827) and a MPS IIIB mouse colony was established. In MPS IIIB or Sanfillipo syndrome mice, both alleles of alpha-N-acetylglucosaminidase (NAGLU) are disrupted, knocked out (KO), by insertion of a neomycin resistance gene via homologous recombination. Gografe S I; Garbuzova-Davis S; Willing A E; Haas K; Chamizo W; Sanberg P R. Mouse model of Sanfilippo syndrome type B: relation of phenotypic features to background strain Comp Med 53(6):622-32. […] The heterozygous (Het) mice have only one allele of the NAGLU gene disrupted and can fully metabolize HS.
(§3) FIG. 1A and FIG. 1B show bar graphs of the percentage staining of Cluster of Differentiation 68 (CD68) and glial fibrillary acidic protein (GFAP), respectively, in serial section (one every twelve sections of 40 um thick) along the rostrocaudal axis of the brain after 30 days. […]
(§4) Quantification of brain slices was performed using Image Pro Premiere software.
(§5) After 30 days, animals were sacrificed and brain slices were taken along the rostro caudal axis in a serial section. Quantification was performed using Image Pro Premiere software.

[2] = system: GFAP (astrocyte activation); test: GFAP immunoreactivity in brain slices, mouse model of MPS IIIB; assay type: in vivo
Experimental: as §1, §2, §3, §4, §5

[3] = biological target: CB2 endocannabinoid receptor (Homo sapiens, UniProt P34972); settings: cited from earlier work
Sequence of CB2 endocannabinoid receptor (P34972 whole entry): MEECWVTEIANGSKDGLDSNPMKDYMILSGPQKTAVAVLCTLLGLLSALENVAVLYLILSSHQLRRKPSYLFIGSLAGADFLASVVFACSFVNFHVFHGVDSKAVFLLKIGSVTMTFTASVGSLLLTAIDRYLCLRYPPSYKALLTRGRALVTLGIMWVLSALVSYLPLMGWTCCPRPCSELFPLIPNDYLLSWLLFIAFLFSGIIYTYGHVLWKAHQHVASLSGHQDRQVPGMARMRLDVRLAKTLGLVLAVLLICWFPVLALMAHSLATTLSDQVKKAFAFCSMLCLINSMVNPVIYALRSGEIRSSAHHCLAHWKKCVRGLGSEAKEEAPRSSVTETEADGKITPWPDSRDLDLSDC

[4] = system: inflammatory signaling molecules; test: Inflammatory signaling molecules in plasma and CSF, mouse model of MPS IIIB; assay type: in vivo; settings: MPS IIIB KO mice, 100, 33 or 10 mg/kg/day oral, after 6 months, vs vehicle control
Source text: In particular, less of one or more of IL-1alpha, IL1beta, IL-2, IL-4, IL-6, IL-8, 11-10, IL-17A, IL-23, INF-gamma, MCP-1, caspase-1, caspase-3, TNF-alpha, and TGF-beta-alpha is expected.

[5] = biological target: voltage-gated sodium channel Nav 1.6 receptor (Homo sapiens, UniProt Q9UQD0); settings: cited from earlier work
Sequence of voltage-gated sodium channel Nav 1.6 receptor (Q9UQD0 whole entry): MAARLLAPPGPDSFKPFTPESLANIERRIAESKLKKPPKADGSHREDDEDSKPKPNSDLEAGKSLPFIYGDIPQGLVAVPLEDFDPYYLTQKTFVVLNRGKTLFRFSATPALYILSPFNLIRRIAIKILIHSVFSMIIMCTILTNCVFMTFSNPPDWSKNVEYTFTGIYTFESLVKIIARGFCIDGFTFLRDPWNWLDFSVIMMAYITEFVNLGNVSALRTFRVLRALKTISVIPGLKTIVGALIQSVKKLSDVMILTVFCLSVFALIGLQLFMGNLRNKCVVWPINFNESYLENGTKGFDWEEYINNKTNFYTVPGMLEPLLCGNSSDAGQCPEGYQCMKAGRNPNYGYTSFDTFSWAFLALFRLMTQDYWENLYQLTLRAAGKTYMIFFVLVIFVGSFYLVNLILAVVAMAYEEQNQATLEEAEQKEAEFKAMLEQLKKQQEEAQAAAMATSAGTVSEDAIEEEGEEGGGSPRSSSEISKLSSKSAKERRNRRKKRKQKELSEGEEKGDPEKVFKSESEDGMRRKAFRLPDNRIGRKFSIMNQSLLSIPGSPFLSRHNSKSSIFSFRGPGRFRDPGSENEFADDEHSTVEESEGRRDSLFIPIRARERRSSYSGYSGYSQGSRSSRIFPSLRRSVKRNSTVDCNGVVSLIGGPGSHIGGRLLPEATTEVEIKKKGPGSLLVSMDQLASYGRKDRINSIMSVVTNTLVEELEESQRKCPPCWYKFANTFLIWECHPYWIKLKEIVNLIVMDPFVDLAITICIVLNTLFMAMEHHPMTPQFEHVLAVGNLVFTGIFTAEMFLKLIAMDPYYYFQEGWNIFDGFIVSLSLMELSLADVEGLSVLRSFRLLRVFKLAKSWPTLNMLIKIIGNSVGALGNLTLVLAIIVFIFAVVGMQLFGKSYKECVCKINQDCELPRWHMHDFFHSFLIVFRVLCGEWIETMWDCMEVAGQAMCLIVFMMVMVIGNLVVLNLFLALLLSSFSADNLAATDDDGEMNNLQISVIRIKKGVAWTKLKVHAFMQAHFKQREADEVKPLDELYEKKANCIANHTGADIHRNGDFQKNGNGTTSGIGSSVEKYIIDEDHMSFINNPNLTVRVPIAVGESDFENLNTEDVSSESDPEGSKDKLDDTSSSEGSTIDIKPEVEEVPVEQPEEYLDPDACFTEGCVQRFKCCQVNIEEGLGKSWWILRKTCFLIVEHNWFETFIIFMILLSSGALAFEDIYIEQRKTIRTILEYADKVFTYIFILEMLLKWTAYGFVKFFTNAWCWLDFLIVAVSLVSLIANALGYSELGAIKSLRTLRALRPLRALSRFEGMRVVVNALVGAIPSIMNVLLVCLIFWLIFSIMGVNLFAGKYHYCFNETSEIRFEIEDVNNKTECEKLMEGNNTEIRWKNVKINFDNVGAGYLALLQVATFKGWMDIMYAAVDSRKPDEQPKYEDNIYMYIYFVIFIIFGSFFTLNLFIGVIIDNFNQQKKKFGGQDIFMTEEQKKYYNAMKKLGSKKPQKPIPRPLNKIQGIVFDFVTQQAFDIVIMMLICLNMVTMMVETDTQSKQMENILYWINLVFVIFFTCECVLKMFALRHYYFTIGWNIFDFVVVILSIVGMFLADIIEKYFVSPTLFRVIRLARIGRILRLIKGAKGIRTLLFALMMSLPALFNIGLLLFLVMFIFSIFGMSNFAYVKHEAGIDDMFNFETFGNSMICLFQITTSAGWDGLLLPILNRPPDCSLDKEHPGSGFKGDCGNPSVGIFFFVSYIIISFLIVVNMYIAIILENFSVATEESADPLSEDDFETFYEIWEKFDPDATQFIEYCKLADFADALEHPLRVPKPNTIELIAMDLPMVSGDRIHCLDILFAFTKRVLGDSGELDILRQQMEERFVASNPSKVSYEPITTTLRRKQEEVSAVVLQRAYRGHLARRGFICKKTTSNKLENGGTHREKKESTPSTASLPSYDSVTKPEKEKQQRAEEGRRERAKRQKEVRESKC

[6] = in vivo; cited from earlier work
[7] = 9-month old MPS IIIB KO mice, 100 mg/kg CBD in sesame oil, oral gavage once daily for 30 days, vs KO mice given vehicle
[8] = MPS IIIB KO mice, 100 mg/kg oral, 30 days, representative brain slices

Row | Molecule | hyperactivity (MPS IIIB KO mice) | learning deficit (MPS IIIB KO mice) | social interaction (MPS IIIB KO mice) | spatial memory (MPS IIIB KO mice) | decrease in the immunoreactivity of CD68 (% area) in brain [1, 7] [%] | microglia cell neuroinflammation and activation (CD68) [1, 8] | decrease in the immunoreactivity of GFAP (% area) in brain [2, 7] [%] | astrocyte cell neuroinflammation and activation (GFAP) [2, 8] | affinity to CB2 receptor [3] | inflammatory signaling molecules in plasma and CSF [4] | pIC50 [5] | affinity to Nav 1.6 receptor [5] | crossing of the BBB [6]
1 | C=C(C)[C@@H]1CCC(C)=C[C@H]1c1c(O)cc(CCCCC)cc1O [CBD, Cannabidiol] | less hyperactivity | less learning deficit | more social interaction | less loss of spatial memory | 30 | significantly decreases | 50 | significantly decreases | uM affinity | less inflammatory signaling molecules | 5.22 to 6.00 | uM affinity | –
2 | Adalimumab | – | – | – | – | – | – | – | – | – | – | – | – | does not cross the BBB
